pEC50: −log10 of the molar value.
Tested on: human smooth muscle cells
Experiment: not given
Conditions: serial quantification of the proportion of cells with senescence-associated beta-galactosidase activity; cited from earlier work

SMILES	senescence in smooth muscle cells
O=C(/C=C/c1cccnc1)NCCCCC1CCN(C(=O)c2ccccc2)CC1 [FK866]	induced premature senescence

Target: NAMPT enzyme (Homo sapiens (Human), UniProt P43490)
Experiment: Enzyme Assay and NMN Detection (NAMPT reaction, fluorescence detection of NMN)
Assay type: biochemical
Conditions: Table B-1; NAMPT activation, NMN formation
Procedure, shortened: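 Reaction in 50 mM HEPES pH 7.5, 5 mM MgCl2, 0.1% Prionex, 0.005% Tween 20, 1 mM TCEP at room temperature, with 16 nM NAMPT, 120 uM ATP, 5 uM nicotinamide, 6.25 uM PRPP, 0.04 U/ml pyrophosphatase for 2 h. Stopped with acetophenone/KOH then formic acid; NMN quantified by fluorescence (ex380/em460) against calibration curve.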

NAMPT enzyme, sequence (P43490 whole entry, species assumed): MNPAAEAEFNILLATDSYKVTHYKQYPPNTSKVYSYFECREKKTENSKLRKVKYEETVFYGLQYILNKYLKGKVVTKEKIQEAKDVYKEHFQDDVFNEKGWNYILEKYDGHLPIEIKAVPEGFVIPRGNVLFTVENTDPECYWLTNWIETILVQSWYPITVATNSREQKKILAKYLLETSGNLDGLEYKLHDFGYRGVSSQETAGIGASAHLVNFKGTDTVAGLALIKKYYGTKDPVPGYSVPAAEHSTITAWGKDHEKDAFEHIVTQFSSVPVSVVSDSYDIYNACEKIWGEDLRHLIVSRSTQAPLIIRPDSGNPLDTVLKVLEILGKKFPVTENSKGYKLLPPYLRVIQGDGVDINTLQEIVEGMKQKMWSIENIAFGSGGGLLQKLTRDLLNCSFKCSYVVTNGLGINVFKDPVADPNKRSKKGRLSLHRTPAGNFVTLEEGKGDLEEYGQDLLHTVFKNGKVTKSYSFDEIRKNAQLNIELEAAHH

pEC50	SMILES
< 4.70	CC(C)N(Cc1ccccc1)S(=O)(=O)c1ccc(NC(=O)NCc2nccs2)cc1 [N-Benzyl-N-isopropyl-4-(3-thiazol-2-ylmethyl-ureido)-benzenesulfonamide]
5.70 to 7.00	O=C(NCc1cnco1)Nc1ccc(S(=O)(=O)N2CCc3ccccc3C2)cc1 [1-[4-(3,4-Dihydro-1H-isoquinoline-2-sulfonyl)-phenyl]-3-oxazol-5-ylmethyl-urea]
5.70 to 7.00	O=C(NCc1cn[nH]c1)Nc1ccc(C(=O)Nc2ccccc2Cl)cc1 [4-(3-((1H-pyrazol-4-yl)methyl)ureido)-N-(2-chlorophenyl)benzamide]

Same assay, conditions: Table B-2; NAMPT activation, NMN formation

pEC50	SMILES
5.70 to 7.00	Cc1ccc(NS(=O)(=O)c2ccc(NC(=O)NCc3ccncc3)cc2)cc1 [4-(3-Pyridin-4-ylmethyl-ureido)-N-p-tolyl-benzenesulfonamide]
5.70 to 7.00	O=C(NCc1ccncc1)Nc1ccc(S(=O)(=O)NCc2ccc(C(F)(F)F)cc2)cc1 [4-(3-Pyridin-4-ylmethyl-ureido)-N-(4-trifluoromethyl-benzyl)-benzenesulfonamide]
5.70 to 7.00	N#Cc1cccc(CNS(=O)(=O)c2ccc(NC(=O)NCc3ccncc3)cc2)c1 [N-(3-Cyano-benzyl)-4-(3-pyridin-4-ylmethyl-ureido)-benzenesulfonamide]
5.70 to 7.00	N#Cc1ccccc1CNS(=O)(=O)c1ccc(NC(=O)NCc2ccncc2)cc1 [N-(2-Cyano-benzyl)-4-(3-pyridin-4-ylmethyl-ureido)-benzenesulfonamide]
5.70 to 7.00	CC(C)NS(=O)(=O)c1ccc(NC(=O)NCc2ccncc2)cc1 [N-Isopropyl-4-(3-pyridin-4-ylmethyl-ureido)-benzenesulfonamide]
> 7.00	COc1cccc(S(=O)(=O)c2ccc(NC(=O)NCc3ccncc3)cc2)c1 [1-[4-(3-Methoxy-benzenesulfonyl)-phenyl]-3-pyridin-4-ylmethyl-urea]
> 7.00	Cc1ccccc1CN(C)S(=O)(=O)c1ccc(NC(=O)NCc2ccncc2)cc1 [N-Methyl-N-(2-methyl-benzyl)-4-(3-pyridin-4-ylmethyl-ureido)-benzenesulfonamide]
5.70 to 7.00	O=C(NCc1ccncc1)Nc1ccc(C(=O)NCCc2ccc(F)cc2)cc1 [N-(4-fluorophenethyl)-4-(3-(pyridin-4-ylmethyl)ureido)benzamide]
5.70 to 7.00	Cc1ccc(CCNC(=O)c2ccc(NC(=O)NCc3ccncc3)cc2)cc1 [N-(4-methylphenethyl)-4-(3-(pyridin-4-ylmethyl)ureido)benzamide]
< 4.70	O=C(NCc1ccncc1)Nc1ccc(C(=O)O)cc1 [4-(3-(Pyridin-4-ylmethyl)ureido)benzoic acid]
5.70 to 7.00	CC1Cc2ccccc2CN1S(=O)(=O)c1ccc(NC(=O)NCc2ccncc2)cc1 (centres unmarked) [1-[4-(3-Methyl-3,4-dihydro-1H-isoquinoline-2-sulfonyl)-phenyl]-3-pyridin-4-ylmethyl-urea]
5.70 to 7.00	CN(CC1CCC1)S(=O)(=O)c1ccc(NC(=O)NCc2ccncc2)cc1 [N-Cyclobutylmethyl-N-methyl-4-(3-pyridin-4-ylmethyl-ureido)-benzenesulfonamide]
< 4.70	O=C(NCc1ccncc1)Nc1ccc(C(=O)NCc2cccc(F)c2)cc1 [N-(3-fluorobenzyl)-4-(3-(pyridin-4-ylmethyl)ureido)benzamide]
5.70 to 7.00	O=C(NCc1ccncc1)Nc1ccc(S(=O)(=O)Nc2cccc(Cl)c2)cc1 [4-(3-pyridin-4-ylmethyl-ureido)-N-(3-chloro-phenyl)-benzenesulfonamide]
< 4.70	CCOC(=O)c1ccc(NC(=O)NCc2ccnc(C)c2)cc1 [Ethyl 4-(3-((2-methylpyridin-4-yl)methyl)ureido)benzoate]

Same assay, conditions: Table B-3; NAMPT activation, NMN formation

pEC50	SMILES
< 4.70	Cc1ccc(NC(=O)NCc2cccnc2)cc1 [1-(Pyridin-3-ylmethyl)-3-(p-tolyl)urea]

Same assay, conditions: Table B-4; NAMPT activation, NMN formation

pEC50	SMILES
> 7.00	Cc1ccccc1S(=O)(=O)c1ccc(NC(=O)NCc2cn[nH]c2)cc1 [1-(1H-Pyrazol-4-ylmethyl)-3-[4-(toluene-2-sulfonyl)-phenyl]-urea]
5.70 to 7.00	O=C(NCc1cn[nH]c1)Nc1ccc(Nc2nc(-c3ccc(F)cc3)cs2)cc1 [1-{4-[4-(4-Fluoro-phenyl)-thiazol-2-ylamino]-phenyl}-3-(1H-pyrazol-4-ylmethyl)-urea]
5.70 to 7.00	Cn1nc(-c2ccc(NC(=O)NCc3cn[nH]c3)cc2)c2ncccc21 [1-[4-(1-Methyl-1H-pyrazolo[4,3-b]pyridin-3-yl)-phenyl]-3-(1H-pyrazol-4-ylmethyl)-urea]
5.70 to 7.00	Cn1cc(S(=O)(=O)c2ccc(NC(=O)NCc3cn[nH]c3)cc2)cn1 [1-[4-(1-Methyl-1H-pyrazole-4-sulfonyl)-phenyl]-3-(1H-pyrazol-4-ylmethyl)-urea]
4.70 to 5.30	COc1ccc(-c2ccccc2S(=O)(=O)c2ccc(NC(=O)NCc3cn[nH]c3)cc2)cc1 [1-[4-(4′-Methoxy-biphenyl-2-sulfonyl)-phenyl]-3-(1H-pyrazol-4-ylmethyl)-urea]
5.70 to 7.00	O=C(NCc1cn[nH]c1)Nc1ccc(S(=O)(=O)c2ccccc2C(F)(F)F)cc1 [1-(1H-Pyrazol-4-ylmethyl)-3-[4-(2-trifluoromethyl-benzenesulfonyl)-phenyl]-urea]

Same assay, conditions: Table B-6; NAMPT activation, NMN formation

pEC50	SMILES
5.70 to 7.00	Cc1ccccc1S(=O)(=O)c1ccc(NC(=O)NCc2ccncc2)cc1 [1-Pyridin-4-ylmethyl-3-[4-(toluene-2-sulfonyl)-phenyl]-urea]
5.70 to 7.00	O=C(NCc1ccncc1)Nc1ccc(-c2cccc3scnc23)cc1 [1-(4-Benzothiazol-4-yl-phenyl)-3-pyridin-4-ylmethyl-urea]
4.70 to 5.30	COc1ccccc1-c1ccccc1S(=O)(=O)c1ccc(NC(=O)NCc2ccncc2)cc1 [1-[4-(2′-Methoxy-biphenyl-2-sulfonyl)-phenyl]-3-pyridin-4-ylmethyl-urea]
5.70 to 7.00	Cc1cccc2c1c(-c1ccc(NC(=O)NCc3ccncc3)cc1)nn2C [1-(4-(1,4-Dimethyl-1H-indazol-3-yl)phenyl)-3-(pyridin-4-ylmethyl)urea]
5.70 to 7.00	Cn1cc(S(=O)(=O)c2ccc(NC(=O)NCc3ccncc3)cc2)cn1 [1-[4-(1-Methyl-1H-pyrazole-4-sulfonyl)-phenyl]-3-pyridin-4-ylmethyl-urea]

Tested on: not given
Experiment: not given
Conditions: adult mice, specific deletion of NAMPT; administration of the NAD precursor; cited from earlier work

SMILES	exercise performance, mass and strength of muscle
NC(=O)c1ccc[n+]([C@@H]2O[C@H](CO)[C@@H](O)[C@H]2O)c1 [nicotinamide riboside]	rapidly and uniformly restored

Reference: patent US11452717B2, “Small molecule activators of nicotinamide phosphoribosyltransferase (NAMPT) and uses thereof” (Sanford Burnham Prebys Medical Discovery Institute, priority 2017, dated 2022)
